According to publication PMC9161374 (Science Translational Medicine, 2022):
Values joined by “and” are separate entries in the source; they are usually repeats but may differ in a detail not shown here. Equal entries are not always repeated. Where two headings read alike, the source gives them in different places.

Assays:
[1] = system: SARS-CoV-2 replicon system (pBAC-SARS-CoV-2-Replicon-Luc); experiment: microbe, parasite or virus in culture; format: cell-based; settings: Severe acute respiratory syndrome coronavirus 2, HEK-293T, 60 h
SARS-CoV-2 (B.1) = experiment: Anti-SARS-CoV-2 activity in Vero E6 cells (viral yield by qRT-PCR); format: cell-based
[2] = CCK-8 cell viability assay; format: cell-based, African green monkey; settings: African green monkey; Vero E6 cells, 48 h, CCK8
Experimental: To investigate the effect of drugs on cell viability, Vero E6 cells were seeded in 96-well plates at a density of 20,000 cells per well and were treated with drugs at indicated concentrations (0, 0.01, 0.1, 1, 5, 10, 50, 75, 100, 200 μM) for 48 hours. Cell viability was tested by using Cell Counting Kit-8 (CCK-8, Bimake, B34302). The figures were plotted from cell viability percentage versus the drug concentrations using GraphPad Prism 6 software.
Fig. S4. Cytotoxicity assay of compounds in Vero E6 cells.
Vero E6 cells were plated in 96-well plates and treated with increasing concentrations
of each indicated compound, ranging from 0 to 200 μM, for 48 hours. Cell viability was
tested using Cell Counting Kit-8 (CCK-8). Data are presented as mean ± SD.

[3] = system: SARS-CoV-2 (B.1) in Huh7 cells; experiment: Anti-SARS-CoV-2 activity in Huh7 cells (viral yield by qRT-PCR); format: cell-based; settings: B.1, MOI 0.05, 48 h
[4] = system: SARS-CoV-2 (Delta, B.1.617.2); experiment: microbe, parasite or virus in culture; format: cell-based; settings: for % Inhibition: delta
[5] = system: SARS-CoV-2 (Beta, B.1.351); experiment: microbe, parasite or virus in culture; format: cell-based; settings: for EC50: read-out: EC50 in Vero E6 cells, SARS-CoV-2 (Beta, B.1.351); for % Inhibition: beta
SARS-CoV-2 (strain B.1) = experiment: SARS-CoV-2 infection in Ad5-hACE2 mice; format: in vivo, Ad5-hACE2 BALB/c mice

CCCC(=O)OC[C@H]1O[C@@](C#N)(c2ccc3c(N)ncnn23)[C@H](O)[C@@H]1O [ATV009]
EC50 ([1]; read-out: EC50 (Confidence 95%), replicon): 217 nM | EC90 ([1]; read-out: EC90 (Confidence 95%), replicon): 313 nM | % Inhibition (SARS-CoV-2 (B.1); 1 μM, replicates, sheet Fig.S3): 55.195% | % Inhibition (SARS-CoV-2 (B.1); 2 μM, replicates, sheet Fig.S3): 75.409% | % Inhibition (SARS-CoV-2 (B.1); 5 μM, replicates, sheet Fig.S3): 88.59% | % Inhibition (SARS-CoV-2 (B.1); 10 μM, replicates, sheet Fig.S3): 90.9393% | % Inhibition (SARS-CoV-2 (B.1); B.1, 2 uM, Vero E6, replicates, 2 µM): 99.9224% | % Inhibition (SARS-CoV-2 (B.1); B.1, 5 uM, Vero E6, replicates, 5 µM): 99.9224% | % Inhibition (SARS-CoV-2 (B.1); B.1, 10 uM, Vero E6, replicates, 10 µM): 99.9809% | % Inhibition (SARS-CoV-2 (B.1); B.1, 50 uM, Vero E6, replicates, 50 µM): 99.9896% | inhibition at 0.1 µM (SARS-CoV-2 (B.1); Severe acute respiratory syndrome coronavirus 2, Vero C1008, 0.1 μM, replicates, sheet Fig.S3): 0% | inhibition at 0.5 µM (SARS-CoV-2 (B.1); Severe acute respiratory syndrome coronavirus 2, Vero C1008, 0.5 μM, replicates, sheet Fig.S3): 0% | inhibition at 1 µM (SARS-CoV-2 (B.1); Severe acute respiratory syndrome coronavirus 2, Vero C1008, 1 μM, replicates, sheet Fig.S3): 63.5% | inhibition at 2 µM (SARS-CoV-2 (B.1); Severe acute respiratory syndrome coronavirus 2, Vero C1008, 2 μM, replicates, sheet Fig.S3): 75.7% | inhibition at 5 µM (SARS-CoV-2 (B.1); Severe acute respiratory syndrome coronavirus 2, Vero C1008, 5 μM, replicates, sheet Fig.S3): 90.9% | inhibition at 10 µM (SARS-CoV-2 (B.1); Severe acute respiratory syndrome coronavirus 2, Vero C1008, 10 μM, replicates, sheet Fig.S3): 93.2% | inhibition at 0.01 µM (SARS-CoV-2 (B.1); Severe acute respiratory syndrome coronavirus 2, Vero C1008, B.1, 0.01 uM, Vero E6, replicates): 0% | inhibition at 0.1 µM (SARS-CoV-2 (B.1); Severe acute respiratory syndrome coronavirus 2, Vero C1008, B.1, 0.1 uM, Vero E6, replicates): 0% | inhibition at 0.25 µM (SARS-CoV-2 (B.1); Severe acute respiratory syndrome coronavirus 2, Vero C1008, B.1, 0.25 uM, Vero E6, replicates): 0% | inhibition at 0.5 µM (SARS-CoV-2 (B.1); Severe acute respiratory syndrome coronavirus 2, Vero C1008, B.1, 0.5 uM, Vero E6, replicates): 0% | inhibition at 1 µM (SARS-CoV-2 (B.1); Severe acute respiratory syndrome coronavirus 2, Vero C1008, B.1, 1 uM, Vero E6, replicates): 0% | inhibition at 2 µM (SARS-CoV-2 (B.1); Severe acute respiratory syndrome coronavirus 2, Vero C1008, B.1, 2 uM, Vero E6, replicates): 99.8% | inhibition at 5 µM (SARS-CoV-2 (B.1); Severe acute respiratory syndrome coronavirus 2, Vero C1008, B.1, 5 uM, Vero E6, replicates): 99.8% | inhibition at 10 µM (SARS-CoV-2 (B.1); Severe acute respiratory syndrome coronavirus 2, Vero C1008, B.1, 10 uM, Vero E6, replicates): 99.9% | inhibition at 50 µM (SARS-CoV-2 (B.1); Severe acute respiratory syndrome coronavirus 2, Vero C1008, B.1, 50 uM, Vero E6, replicates): 99.9% | EC90 (SARS-CoV-2 (B.1); Severe acute respiratory syndrome coronavirus 2, Vero C1008, read-out: EC90 (Confidence 95%)): 1530 nM | EC50 (SARS-CoV-2 (B.1); Severe acute respiratory syndrome coronavirus 2, Vero C1008, MOI 0.05, 48 h): 1330 nM | CC50 at 48 h [2]: > 50000 nM | EC50 ([3]; Severe acute respiratory syndrome coronavirus 2, Huh-7, read-out: EC50 (Confidence 95%) in Huh7 cells): 1040 nM | EC90 ([3]; Severe acute respiratory syndrome coronavirus 2, Huh-7, read-out: EC90 (Confidence 95%) in Huh7 cells): 1310 nM | EC50 ([4]; Severe acute respiratory syndrome coronavirus 2, Vero C1008, 48 h, read-out: EC50 in Vero E6 cells, SARS-CoV-2 (Delta, B.1.617.2)): 492 nM | inhibition at 0.01 µM ([4]; Severe acute respiratory syndrome coronavirus 2, Vero C1008, delta, 0.01 uM, Vero E6, replicates): 0% | inhibition at 0.1 µM ([4]; Severe acute respiratory syndrome coronavirus 2, Vero C1008, delta, 0.1 uM, Vero E6, replicates): 0% | inhibition at 0.25 µM ([4]; Severe acute respiratory syndrome coronavirus 2, Vero C1008, delta, 0.25 uM, Vero E6, replicates): 0% | inhibition at 0.5 µM ([4]; Severe acute respiratory syndrome coronavirus 2, Vero C1008, delta, 0.5 uM, Vero E6, replicates): 57.8% | inhibition at 1 µM ([4]; Severe acute respiratory syndrome coronavirus 2, Vero C1008, delta, 1 uM, Vero E6, replicates): 94% | inhibition at 2 µM ([4]; Severe acute respiratory syndrome coronavirus 2, Vero C1008, delta, 2 uM, Vero E6, replicates): 95.8% | inhibition at 5 µM ([4]; Severe acute respiratory syndrome coronavirus 2, Vero C1008, delta, 5 uM, Vero E6, replicates): 91.8% | inhibition at 10 µM ([4]; Severe acute respiratory syndrome coronavirus 2, Vero C1008, delta, 10 uM, Vero E6, replicates): 99.7% | inhibition at 50 µM ([4]; Severe acute respiratory syndrome coronavirus 2, Vero C1008, delta, 50 uM, Vero E6, replicates): 99.9% | EC90 ([4]; Severe acute respiratory syndrome coronavirus 2, Vero C1008, read-out: EC90 (Confidence 95%), Vero-E6, Delta B.1.617.2): 678 nM | % Inhibition ([4]; 0.5 uM, Vero E6, replicates): 47.7229% | % Inhibition ([4]; 1 uM, Vero E6, replicates): 93.0132% | % Inhibition ([4]; 2 uM, Vero E6, replicates): 93.5943% | % Inhibition ([4]; 5 uM, Vero E6, replicates): 86.9079% | % Inhibition ([4]; 10 uM, Vero E6, replicates): 98.6486% | % Inhibition ([4]; 50 uM, Vero E6, replicates): 99.5907% | EC50 ([5]; Severe acute respiratory syndrome coronavirus 2, Vero C1008, 48 h): 1380 nM | inhibition at 0.01 µM ([5]; Severe acute respiratory syndrome coronavirus 2, Vero C1008, beta, 0.01 uM, Vero E6, replicates): 0% | inhibition at 0.1 µM ([5]; Severe acute respiratory syndrome coronavirus 2, Vero C1008, beta, 0.1 uM, Vero E6, replicates): 0% | inhibition at 0.25 µM ([5]; Severe acute respiratory syndrome coronavirus 2, Vero C1008, beta, 0.25 uM, Vero E6, replicates): 0% | inhibition at 0.5 µM ([5]; Severe acute respiratory syndrome coronavirus 2, Vero C1008, beta, 0.5 uM, Vero E6, replicates): 0% | inhibition at 1 µM ([5]; Severe acute respiratory syndrome coronavirus 2, Vero C1008, beta, 1 uM, Vero E6, replicates): 0% | inhibition at 2 µM ([5]; Severe acute respiratory syndrome coronavirus 2, Vero C1008, beta, 2 uM, Vero E6, replicates): 97% | inhibition at 5 µM ([5]; Severe acute respiratory syndrome coronavirus 2, Vero C1008, beta, 5 uM, Vero E6, replicates): 99.7% | inhibition at 10 µM ([5]; Severe acute respiratory syndrome coronavirus 2, Vero C1008, beta, 10 uM, Vero E6, replicates): 99.9% | inhibition at 50 µM ([5]; Severe acute respiratory syndrome coronavirus 2, Vero C1008, beta, 50 uM, Vero E6, replicates): 99.9% | EC90 ([5]; Severe acute respiratory syndrome coronavirus 2, Vero C1008, read-out: EC90 (Confidence 95%), Vero-E6, Beta B.1.351): 1780 nM | % Inhibition ([5]; 2 uM, Vero E6, replicates): 97.0202% | % Inhibition ([5]; 5 uM, Vero E6, replicates): 99.5977% | % Inhibition ([5]; 10 uM, Vero E6, replicates): 99.9341% | % Inhibition ([5]; 50 uM, Vero E6, replicates): 99.9498% | EC50 [5]: 1480 nM

CC(C)C(=O)OC[C@H]1O[C@@H](n2ccc(NO)nc2=O)[C@H](O)[C@@H]1O [EIDD-2801, molnupiravir, reference compound]
Lung viral titer, Log10 (FFU/g) (SARS-CoV-2 (strain B.1); 500 mg/kg orally once daily, 2 dpi, FFA, individual mice): 3.468 Log10 (FFU/g) and 2.623 Log10 (FFU/g) and 3.1 Log10 (FFU/g) | viral load and pathological damage of the lung (SARS-CoV-2 (strain B.1); ATV006 250 mg/kg, EIDD-2801 500 mg/kg, orally once daily): reduce the viral load and pathological damage of the lung
